# Where a name gives a salt, the structure may show the parent alone. Read-outs that look alike come from different tables or passages of the source.
# Experiments:
# ROCK = assay type: cell-based
# Description: The meaning of “Rho-associated protein kinase (ROCK) inhibitor” is well known in the art. An assay for determining a ROCK suppressor or ROCK inhibitor can include for example the following method. ROCKs were discovered as the first effectors of Rho and they induce the formation of stress fibers and focal adhesions by phosphorylating MLC (myosin light chain). Therefore, an assay for determining ROCK suppression is confirming MLC phosphorylation inhibition such as by Western blotting.
# [1] = test system: mouse ESC-derived Flk1^+ MPCs; test: Induction of PDGFRα^+Flk1^− cardioblasts (PCBs) from mouse ESC-derived Flk1^+ MPCs; assay type: cell-based; details: each reagent of CsAYTE alone; FIGS. 11A, 11B
# Protocol: (§1) For induction of Flk1^+ MPCs, ESCs and iPSCs were cultured without LIF and plated on a 0.1% gelatin-coated dish at cell density 1-1.5×10^3 cells/cm^2 in the differentiation medium (alpha MEM, Invitrogen) with 10% fetal bovine serum (FBS) (Welgene), 2-mercaptoethanol (Invitrogen), L-glutamine (Invitrogen), and antibiotics (Invitrogen), which was changed every 2 days, for 4.5 days. At day 4.5, differentiated ESCs and iPSCs were harvested with 0.25% trypsin-EDTA and antigen recovery was performed in the differentiation medium for 30 min in an incubator. Then, cells were washed using phosphate buffered saline (PBS)/2% FBS and incubated with biotin-conjugated anti-mouse Flk1^+ antibody (clone AVAS 12a1, eBioscience) and […] MicroBeads (Miltenyi Biotec). Flk1^+ MPCs were sorted by AutoMACS Pro Separator (Miltenyi Biotec). For induction of cardioblasts and cardiomyocytes, sorted Flk1^+ MPCs were plated onto the MMC (AG scientific) treated confluent OP9 cells at a density of 5-10×10^3 cells/cm^2. For the induction of cardiomyocytes in a feeder free system, ESCs were plated on a 0.1% gelatin coated dish at cell density 3×10^3 cells/cm^2 without OP9 cells. Cells were cultured in the differentiation medium which was changed every 2 days.
# Differentiating Flk1^+ MPCs on OP9 cells were harvested with 0.25% trypsin-EDTA or dissociation buffer (Invitrogen). […] To analyze cTnT^+ cells, the cells were permeabilized using Cytofix/Cytoperm solution (BD Biosciences) for 15 min. […] The cells were washed with 10% Perm/Wash buffer (BD Biosciences) and then analyzed. […] Data were analyzed using FlowJo Version 7.5.4 software (TreeStar).
# The cells were fixed with 2% paraformaldehyde (PFA) and blocked with 5% goat (or donkey) serum in PBST (0.1% Tween 20 in PBS) for 1 hr at room temperature (RT). […] Immunocytochemistry stained images were obtained using an LSM510 confocal fluorescence microscope (Carl Zeiss). […] Images were analyzed using Image J software (http://imagej.nih.gov/ij/, 1.47V, NIH, USA). […]
# [2] = test system: mouse ESC-derived Flk1^+ MPCs; test: Differentiation of mouse ESC-derived Flk1^+ MPCs into cardiomyocytes in OP9 co-culture; assay type: cell-based; details: for optimal dose of reagent, determined by total and relative number of differentiated cTnT^+ cells: dose optimization, FIGS. 2A-D
# Protocol: as §1
# CsA (a gift from Novartis Pharma, Korea), 6-Hydroxy-2,5,7,8-tetramethylchroman-2-carboxylic acid (Trolox, Sigma Aldrich), and EW7197 (Son et al., 2014) were dissolved in dimethyl sulfoxide (DMSO, Sigma Aldrich). Y27632 (Calbiochem) was dissolved in distilled water. Reagents were treated at the time of medium change. DMSO was treated as a control vehicle.
# (§2) Differentiating Flk1^+ MPCs on OP9 cells were harvested with 0.25% trypsin-EDTA or dissociation buffer (Invitrogen). […] To analyze cTnT^+ cells, the cells were permeabilized using Cytofix/Cytoperm solution (BD Biosciences) for 15 min. […] After washing in 10% Perm/Wash buffer (BD Biosciences), the cells were incubated for 10 min with Cy5-conjugated anti-mouse IgG antibody (Invitrogen). The cells were washed with 10% Perm/Wash buffer (BD Biosciences) and then analyzed. In live cell analysis and sorting, dead cells were excluded using 4,6-diamidino-2-phenylindole (DAPI, Invitrogen) and OP9 cells were excluded from Flk1^+ MPCs by gating in flow cytometry. The differentiated cardiomyocytes were sorted using αMHC-GFP. Analyses and sorting were performed by FACS Aria II (Beckton Dickinson). Data were analyzed using FlowJo Version 7.5.4 software (TreeStar).
# The cells were fixed with 2% paraformaldehyde (PFA) and blocked with 5% goat (or donkey) serum in PBST (0.1% Tween 20 in PBS) for 1 hr at room temperature (RT). […] After being washed with PBST 3 times, the cells were incubated for 2 hr at room temperature with the following secondary antibodies: Cy3-conjugated anti-mouse IgG antibody (Invitrogen), FITC-conjugated anti-rat IgG (Jackson ImmunoResearch), and Cy3-conjugated anti-rabbit IgG (Jackson ImmunoResearch) antibodies. After being stained with the antibodies, the cells were mounted in fluorescent mounting medium (DAKO). Nuclei were stained with 4,6-diamidino-2-phenylindole (DAPI, Invitrogen). Immunofluorescence staining of mitochondria was performed using MitoTracker Orange CMTMRos probe (Invitrogen) and cells were incubated with probe for 30 to 60 min at 37° C. in serum free medium before fixation. Immunocytochemistry stained images were obtained using an LSM510 confocal fluorescence microscope (Carl Zeiss). Live images of cardiomyocyte differentiation process and αMHC GFP^+ cardiomyocytes were obtained using Axiovert 200M microscope (Carl Zeiss) equipped with AxioCam MRm (Carl Zeiss). Images were analyzed using Image J software (http://imagej.nih.gov/ij/, 1.47V, NIH, USA). Phase-contrast images including beating cardiomyocytes were obtained using an Infinity X digital camera and DpxView LE software (DeltaPix).
# [3] = test system: voltage-gated Na^+ channels; assay type: cell-based, mouse
# [4] = test system: delayed rectifying K^+ channels
# PCBs = test: PCB-derived cardiomyocyte differentiation with indicated reagents after PCB induction, OP9 co-culture; assay type: cell-based, mouse; details: FIGS. 14B, 14C
# Protocol: as §2
# T-type Ca^2+ channels = test: Voltage-clamp recording of T-type Ca^2+ current (ICaT) in M^+CMs; assay type: cell-based, mouse; details: 1 μM
# [5] = in combination with CsA, data not shown
smiles,measurement,setting,value
"C[C@@H](N)[C@H]1CC[C@H](C(=O)Nc2ccncc2)CC1 [Y27632, [(+)-(R)-trans-4-(1-aminoethyl)-N-(4-pyridyl)cyclohexanecarboxamidedihydrochloride]]",MLC phosphorylation in Flk1^+ MPCs during differentiation,ROCK,inhibits
same,Flk1^+ MPC differentiation into PCBs by each reagent,[1],22.0%
same,"optimal dose of reagent, determined by total and relative number of differentiated cTnT^+ cells",[2],10 µM
Cn1c2ccccc2c2c3c(c4c5ccccc5n(CCC#N)c4c21)CNC3=O [Go6976],effect on Flk1^+ MPC differentiation into cTnT^+ cells,[2]; [5],rather inhibited or did not affect
"Cc1c(C)c2c(c(C)c1O)CCC(C)(C(=O)O)O2 (stereo not drawn) [Trolox, 6-hydroxy-2,5,7,8-tetramethylchroman-2-carboxylic acid]",Flk1^+ MPC differentiation into PCBs by each reagent,[1],19.3%
same,"optimal dose of reagent, determined by total and relative number of differentiated cTnT^+ cells",[2],400 µM
"NC1=N[C@H](O)[C@H]2[C@H]3O[C@]4(O)O[C@@H]([C@@H](O)[C@@]2(N1)[C@@H]4O)[C@]3(O)CO [TTX, tetrodotoxin]",voltage gated Na^+ current (INa),[3],inhibited
O=S(=O)(c1cccc2c(I)cccc12)N1CCCNCC1 [ML7],effect on Flk1^+ MPC differentiation into cTnT^+ cells,[2]; [5],rather inhibited or did not affect
C[C@H](NC(=O)Cc1cc(F)cc(F)c1)C(=O)N[C@H](C(=O)OC(C)(C)C)c1ccccc1 [DAPT],effect on Flk1^+ MPC differentiation into cTnT^+ cells,[2]; [5],rather inhibited or did not affect
"CC[N+](CC)(CC)CC [TEA, tetraethylammonium]",delayed rectifier K^+ current (IK),[4],inhibited
NC(=O)c1ncn([C@@H]2O[C@H](CO)[C@@H](O)[C@H]2O)c1N [AICAR],effect on Flk1^+ MPC differentiation into cTnT^+ cells,[2],rather inhibited or did not affect
"Cc1cccc(-c2[nH]c(CNc3ccccc3F)nc2-c2ccc3ncnn3c2)n1 [EW7197, N-[[4-([1,2,4]triazolo[1,5-a]pyridin-6-yl)-5-(6-methylpyridin-2-yl)-1H-imidazol-2-yl]methyl]-2-fluoroaniline]",effect of omission of the reagent from CsAYTE on population of cTnT^+ and αMHC-GFP^+ cells,PCBs,slightly increased
same,Flk1^+ MPC differentiation into PCBs by each reagent,[1],45.3%
same,"optimal dose of reagent, determined by total and relative number of differentiated cTnT^+ cells",[2],1 µg/mL
COC(=O)[C@@]1(OC)C[C@H]2O[C@]1(C)n1c3ccccc3c3c4c(c5c6ccccc6n2c5c31)C(=O)N(C)C4 [KT5823],effect on Flk1^+ MPC differentiation into cTnT^+ cells,[2]; [5],rather inhibited or did not affect
CCC(=O)NC[C@H](Cc1ccc(OCCc2nc(-c3ccccc3)oc2C)cc1)N/C(C)=C\C(=O)c1ccc(C(F)(F)F)cc1 [GW6471],effect on Flk1^+ MPC differentiation into cTnT^+ cells,[2]; [5],rather inhibited or did not affect
Cc1c[nH]c(-c2cnc(NCCNc3ccc(C#N)cn3)nc2-c2ccc(Cl)cc2Cl)n1 [CHIR99021],effect on Flk1^+ MPC differentiation into cTnT^+ cells,[2]; [5],rather inhibited or did not affect
c1cc(-c2cnn3cc(-c4ccc(OCCN5CCCCC5)cc4)cnc23)ccn1 [Compound C],effect on Flk1^+ MPC differentiation into cTnT^+ cells,[2]; [5],rather inhibited or did not affect
CCCCCCOC(=O)[C@]1(O)C[C@@H]2O[C@@]1(C)n1c3ccccc3c3c4c(c5c6ccccc6n2c5c31)C(=O)NC4 [KT5720],effect on Flk1^+ MPC differentiation into cTnT^+ cells,[2]; [5],rather inhibited or did not affect
COCC(=O)O[C@]1(CCN(C)CCCc2nc3ccccc3[nH]2)CCc2cc(F)ccc2[C@@H]1C(C)C [mibefradil],T-type Ca^2+ currents (ICaT),T-type Ca^2+ channels,inhibited
COc1cccc(-c2cc(=O)c3ccccc3o2)c1N [PD98059],effect on Flk1^+ MPC differentiation into cTnT^+ cells,[2]; [5],rather inhibited or did not affect

# Source: patent publication US20160151451A1, “METHOD FOR GENERATING CARDIOMYOCYTES” (Korea Advanced Institute of Science and Technology (KAIST), priority 2014, published 2016)
